Laboratory results published in patent US20220387403A1, “COMPOUNDS, COMPOSITIONS AND METHODS FOR TREATING NASH, NAFLD, AND OBESITY” (CVI Pharmaceuticals Limited, priority 2019, published 2022).
Where two headings read alike, the source gives them in different places.

How the values were obtained:
[1] = tested on: Male Wister rats; test: Lipid lowering effects in Wister rats under a high fat and high cholesterol diet; assay type: in vivo, rat; conditions: 75 mg/kg daily oral
Method: Male Wister rats were used as an animal model to examine the in vivo effects of (14R, 13S)-CRDL in plasma lipid levels.
In one experiment, 18 Wister male rats under a high fat and high cholesterol diet were divided into 2 groups. One group was given (14R, 13S)-CRDL hydrochloride salt orally at a daily dose of 75 mg/kg by an orogastric tube for 4 weeks, and the control group received daily treatment of equal amount of vehicle (0.1 M sodium phosphate, pH 3.5). Serum lipid levels were measured weekly.
At the end of treatment, Rats were sacrificed and blood and sera were collected to measure several critical parameters for liver function and kidney function. […] Kidney function and blood glucose level were not changed by the treatment.

[2] = tested on: Male Wister rats; test: Food intake and body weight in Wister rats under a high fat and high cholesterol diet; assay type: in vivo, rat; conditions: 4-week treatment
Method: The food intake and body weight gains were measured every week during the 4-week treatment period. […] In the first week, the amount of food consumed was decreased in CRDL-treated group. […] The ability of CRDL to activate AMPK signaling pathway to increase energy expenditure and to reduce fat accumulation likely contributes to this weight reducing effect.

[3] = tested on: PCSK9; test: Western blot of PCSK9 protein in HepG2 cells; assay type: cell-based, human; conditions: for expression of PCSK9 protein (in words): 20 μM, 1, 2 and 3 days
Method: (§1) Cells were harvested after 1, 2, and 3 days treatment and western blot analysis was conducted using antibodies directed to LDLR and PCSK9. Chicken anti-LDLR was purchased from Abcam, the mouse anti-PCSK9 was purchased from Cayman Chemicals, and anti-pACC was purchased from Cell Signaling.
(§2) To determine whether the stimulatory effects of statins on LDLR protein expression could be enhanced by some new compounds invented herein, HepG2 cells were untreated or treated with a low dose of rosuvastatin (RSV) at 0.3 and 1 uM concentration in the absence or the presence of Compound 127(+), or treated with low concentrations of Compound 127(+) alone for 2 days. Western blot analysis was conducted to examine LDLR and PCSK9 protein levels. Compound 127(+) is the single enantiomer of compound 127 with a positive optical rotation. […] Furthermore, the inducing effects of RSV on PCSK9 protein levels were antagonized by compound 127(+).
(§3) Chicken anti-LDLR was purchased from Abcam and the mouse anti-PCSK9 was purchased from Cayman Chemicals. HepG2 cells cultured in 60-mm dishes were incubated overnight in medium containing 0.5% fetal bovine serum prior to the addition of compounds at 20 uM concentration for 1-3 days. Total cell lysate was isolated and 50 μg of protein was separated on SDS-PAGE and transferred to nitrocellulose membrane for immunoblotting with anti-LDLR, anti-PCSK9, and anti-p-ACC.

[4] = tested on: LDLR; test: Western blot of LDLR protein in HepG2 cells; assay type: cell-based, human; conditions: for LDLR protein levels (in words): 20 μM, 1, 2 and 3 days
Method: as §1, §2, §3

[5] = tested on: hyperlipidemic rabbits; test: Lipid lowering effects and blood chemistry in hyperlipidemic rabbits; conditions: for serum total cholesterol level: in mM
Method: (§4) Forty-two male Japanese rabbits were fed the cholesterol enriched rabbit diet for two weeks to induce hypercholesterolemia. […] Serum samples were collected at day 0 (before the drug treatment) and day 7. […] All tested animals were sacrificed at the end of a total of 14 days treatment and serum samples were analyzed for TC, LDL-C, TG, and HDL-C. In addition to lipid profiles, a number of biochemical parameters were also analyzed to aseesee the effects of drug treatments on liver function, muscle function, kidney function, and heart function.

[6] = tested on: ACC; test: Western blot of phosphorylated ACC in HepG2 cells; assay type: cell-based, human; conditions: 20 μM, 1, 2 and 3 days
Method: as §1, §3

[7] = tested on: hyperlipidemic rabbits; conditions: rabbit, in vivo
Method: as §4

[8] = after 14 days of drug treatment, mean, n = 6
[9] = treatment day 0 (before the drug treatment), mean ± SD, n = 6
[10] = treatment day 4, 128(+)/128(−) 30 mg/kg, SMV/ATV 3 mg/kg once a day oral gavage
[11] = treatment day 7, 128(+)/128(−) 30 mg/kg, SMV/ATV 3 mg/kg once a day oral gavage
[12] = treatment day 10, from day 7 128(+)/128(−) 60 mg/kg, SMV/ATV 10 mg/kg
[13] = treatment day 14, from day 7 128(+)/128(−) 60 mg/kg, SMV/ATV 10 mg/kg
[14] = with rosuvastatin 0.3 and 1 uM, 2 days

For `COc1cc2c(cc1OC)[C@H]1[C@@H](C)c3ccc(OC)c(OC)c3CN1CC2` [CRDL, corydaline], the “adverse effects during the entire treatment” value ([1]; 4 weeks) was “No any adverse effects”, the “Kidney function and blood glucose level” value ([1]; end of 4-week treatment) was “not changed” and the “serum levels of AST and ALT vs control group” value ([1]; end of 4-week treatment) was “statistically lower”. The “LDL-c level, of control” value ([1]; hydrochloride salt, 4 weeks) was 25.6%, the “LDL-c level, of day 0” value ([1]; hydrochloride salt, 4 weeks) was 22.4% and the “TC compared to the control group” value ([1]; hydrochloride salt, 4 weeks) was 33.8%. The “TC, of the pretreatment level” value ([1]; hydrochloride salt, 4 weeks) was 33.0%, the “TG level, of the control” value ([1]; hydrochloride salt, 4 weeks) was 29% and the “TG level, of the pretreatment level (day 0)” value ([1]; hydrochloride salt, 4 weeks) was 27%. For the same compound, the body weight [2] was “maintained constant”.

`COc1ccc2c(c1)CCN1Cc3c(ccc(OC)c3OS(=O)(=O)c3cccc(F)c3)CC21` (stereo not drawn) [128(−), 3,10-Dimethxoy-5,6,7,8,13,13a-hexahydroisoquinolino[2,1-b]isoquinolin-9-yl 3-fluorobenzenesulfonate] was tested, and the “expression of PCSK9 protein (in words)” value [3] was “strongly inhibited”, the “LDLR protein levels (in words)” value [4] was “effectively increased” and the “TC and LDL-C reduction (in words)” value ([5]; 14 days treatment) was “strong TC and LDL-C reduction”. It also gave an HDL-C [5, 8] of 3.5 mmol/L, an LDL-C [5, 8] of 24.4 mmol/L and a TC [5, 8] of 29.7 mmol/L. The TG [5, 8] was 0.9 mmol/L, the “serum total cholesterol level” value [5, 9] was 28.5 ± 6.3 and the “serum total cholesterol level” value [5, 10] was 29.9 ± 8.0. The “serum total cholesterol level” value [5, 11] was 29.0 ± 7.9, the “serum total cholesterol level” value [5, 12] was 27.9 ± 5.2 and the “serum total cholesterol level” value [5, 13] was 29.7 ± 4.9. For the same compound, the “ACC phosphorylation (in words)” value [6] was “induced”, the ALP [7] was 155.5 IU/L and the ALT [7] was 50.2 IU/L. It also gave an AST [7] of 20.8 IU/L, a CK [7] of 997.5 U/L and a CREA [7] of 105.2 µmol/L. The GLU [7] was 7.9 mmol/L, the LDH [7] was 50.3 IU/L and the “adverse effect / toxicities (in words)” value [7] was “absence of any adverse effect”.

`COc1cc2c(cc1OC)C1Cc3ccc(OC)c(OS(=O)(=O)c4cccc(F)c4)c3CN1CC2` (stereo not drawn) [127(+), 2,3,10-Trimethoxy-5,6,7,8,13,13a-hexahydroisoquinolino[2,1-b]isoquinolin-9-yl 3-fluorobenzenesulfonate] was tested, and the “expression of PCSK9 protein (in words)” value [3] was “strongly inhibited”, the “inducing effects of RSV on PCSK9 protein levels, combination (in words)” value [3, 14] was “antagonized” and the “LDLR protein levels (in words)” value [4] was “effectively increased”. The “stimulatory effects of statins on LDLR protein expression, combination (in words)” value [4, 14] was “further improved” and the “ACC phosphorylation (in words)” value [6] was “induced”.

For `COc1ccc2c(c1)CCN1Cc3c(ccc(OC)c3OS(=O)(=O)c3cccc(F)c3)CC21` (stereo not drawn) [128(+), 3,10-Dimethxoy-5,6,7,8,13,13a-hexahydroisoquinolino[2,1-b]isoquinolin-9-yl 3-fluorobenzenesulfonate], the “expression of PCSK9 protein (in words)” value [3] was “strongly inhibited”, the “LDLR protein levels (in words)” value [4] was “effectively increased” and the ALP [5, 8] was 165.2 IU/L. It also gave an ALT [5, 8] of 68.7 IU/L, an AST [5, 8] of 20.8 IU/L and a CK [5, 8] of 1172.3 U/L. It also gave a CREA [5, 8] of 97.2 µmol/L, a GLU [5, 8] of 7.9 mmol/L and an HDL-C [5, 8] of 3.6 mmol/L. The LDH [5, 8] was 47.7 IU/L, the LDL-C [5, 8] was 29.7 mmol/L and the TC [5, 8] was 34.2 mmol/L. The TG [5, 8] was 1.0 mmol/L, the body weight [5, 8] was 2.6 kg and the “serum total cholesterol level” value [5, 9] was 28.6 ± 6.7. The “serum total cholesterol level” value [5, 10] was 31.9 ± 7.5, the “serum total cholesterol level” value [5, 11] was 33.9 ± 7.2 and the “serum total cholesterol level” value [5, 12] was 33.8 ± 7.8. For the same compound, the “serum total cholesterol level” value [5, 13] was 34.2 ± 7.4 and the “ACC phosphorylation (in words)” value [6] was “induced”.
